Experiments:
Test in all cases: MIC, standard broth dilution method in microtitre
Format in all cases: cell-based
[1] = tested on: erythromycin resistant strains of Streptococcus pneumoniae
Protocol: (§1) Using a standard broth dilution method in microtitre, compounds were tested for antibacterial activity. The compounds in the above examples gave minimum inhibitory concentrations (MICs) less than 1 microgram per millilitre against erythromycin-sensitive and erythromycin-resistant strains of Streptococcus pneumoniae and Streptococcus pyogenes.

[2] = tested on: erythromycin resistant strains of Streptococcus pyogenes
Protocol: as §1

S. pyogenes 3565 = details: Streptococcus pyogenes
Protocol: as §1
(§2) In addition, the MIC (μg/mL) of test compounds against various organisms was determined including:
(§3) S. aureus Smith ATCC 13709, S. pneumoniae SP030, S. pyogenes 3565, E. faecalis ATCC 29212, H. influenzae ATCC 49247, M. catarrhalis ATCC 23246.

[3] = tested on: M. catarrhalis ATCC 23246; details: Moraxella catarrhalis, ATCC23246
Protocol: as §1, §2, §3

[4] = tested on: S. aureus Smith ATCC 13709; details: Staphylococcus aureus, ATCC13709
Protocol: as §1, §2, §3

S. pneumoniae SP030 = details: Streptococcus pneumoniae
Protocol: as §1, §2, §3

H. influenzae ATCC 49247 = details: Haemophilus influenzae, ATCC49247; H. influenzae ATCC 49247; broth dilution in microtitre; read-out: MIC
Protocol: as §1, §2, §3

E. faecalis ATCC 29212 = details: Enterococcus faecalis, ATCC29212
Protocol: as §1, §2, §3

- MIC [1]: ≤ 0.25 µg/mL
- MIC [2]: ≤ 0.25 µg/mL
- MIC (S. pyogenes 3565): ≤ 1 µg/mL
- MIC [3]: ≤ 2 µg/mL
- MIC [4]: ≤ 1 µg/mL
- MIC (S. pneumoniae SP030): ≤ 1 µg/mL
- MIC (H. influenzae ATCC 49247): ≤ 2 µg/mL
- MIC (E. faecalis ATCC 29212): ≤ 1 µg/mL
Compound: CC[C@H]1OC(=O)[C@H](C)[C@@H](O[C@H]2C[C@@](C)(OC)[C@@H](OC(=O)CCOCCNc3cc4c(=O)c(C(=O)O)cn(C5CC5)c4cc3Cl)[C@H](C)O2)[C@H](C)[C@@H](O[C@@H]2O[C@H](C)C[C@H](N(C)C)[C@H]2O)[C@](C)(O)C[C@@H](C)CN(C)[C@H](C)[C@@H](OC)[C@]1(C)O [Example 23, 4″-O-{3-[2-(3-Carboxy-7-chloro-1-cyclopropyl-4-oxo-1,4-dihydro-6-quinolinylamino)ethoxy]propionyl}-11-O-methyl-azithromycin]

From patent US20070213283A1, “Macrolides substituted at the 4"-position” (priority 2003, published 2007)
